In US20220127297A1, “Novel Antibacterial 3"-Derivatives Of 4,6-Disubstituted 2,5-Dideoxystreptamine Aminoglycoside Antibiotics” (AGILeBiotics B.V., priority 2018, published 2022):
≈ marks a conversion by molar mass, not a printed value.

Experiments:
E. coli ATCC25922 strain = experiment: MIC 50, broth micro-dilution, wild-type Escherichia coli; assay type: cell-based; settings: MH2, 18 h
Source text: (§1) 3.1 Against E. coli Strains
(§2) Tested reference compounds. Amikacin sulfate (Cat. No. 01693, Chem-Impex), Gentamicin sulfate (Cat. No. G4918, Sigma Aldrich).
(§3) Microbial strains. E. coli ATCC 25922, E. coli ATCC 25922/pET-9b(+), E. coli ATCC 25922/pAT21-1, E. coli ATCC 25922/pBluescript::AAC(6′)-Ie/APH(2″)-Ia, E. coli ATCC 25922/pBlue_lpp_aacC3_rrnC, E. coli ATCC 25922/pSET152.
(§4) Culture media and equipment. BBL™ Mueller Hinton Broth 2 (Lot. BCBW1143, Cat. No. 70192, Sigma); Kanamycin A (Cat. No. A1493, AppliChem); 96-well deep well plate, 1 mL (Cat. No. 0030506.200, Eppendorf); Plate lids (Cat. No. 0030131.525, Eppendorf); 96-well plate, F-bottom (Cat. No. 781602, Brand; Incubator, Infors Multitron Pro); Laminar flow (Heraeus KS12); UV/VIS meter (Eppendorf BioPhotometer Plus); Platereader (Tecan Sunrise).
(§5) Compound preparation. Compounds were prepared in MH2 media at a concentration of 5 mM and stored at 4° C. For testing, solutions of 128 μM were prepared in MH2. Out of these working solutions, 400 μL was transferred to wells in the first column of 96-well deep well plates. Each compound was transferred in triplicate. Plates were previously filled with 200 μL of MH2 media in all wells except for the wells in the first column. After compound and antibiotic addition, the compounds were serial two-fold diluted by transferring 200 μL from the first to the second column, then from the second to the third column and so on. Finally, 200 μL was removed from the last column.
(§6) Inoculum preparation. Microorganisms used were all revived from 20% glycerol (40% v/v glycerol in water was diluted with MH2) storage at −80° C. by inoculating them in 5 mL MH2. inoculums of E. coli containing a plasmid were selected for by adding 50 μg/mL KanaA. The Inoculums were grown to an optical density (measured by UV/Vis spectroscopy) of 0.6-0.8 at 600 nm. Out of these suspensions, actual inoculums were prepared by diluting them to an optical density (OD) of 0.1 in MH2 media. From these inoculums, 200 μL was transferred to each well, resulting in a final compound concentration range of 64 μM-31.3 nM. All plates were incubated at 900 rpm and 70% rH for 18 h at 37° C.
MIC determination. After 18 h of growth, 200 μL was transferred to a 96-well F-bottom plate. The optical density was determined by a plate reader at 600 nm, with 10 s shaking before reading. Triplicate measurements were averaged, and a growth curve was plotted in Microsoft Excel. The first column in which the growth reached half the value of maximum growth was determined as the MIC50 value for that particular compound.
MIC50. The MIC50 of a compound was assigned at which the bacterial growth reached half the value of maximum growth.

E. coli (APH(3′)Ia) = experiment: MIC 50, broth micro-dilution, E. coli expressing APH(3′)Ia; assay type: cell-based, Escherichia coli
Experimental: Plasmid transformation. Approximately 500 ng of the pET-9b(+) (Cat. No. 69432-3, Merck), pAT21-1 (provided by Prof. Dr. Patrice Courvalin, M.D., Pasteur Institute, France; prepared according to Trieu-Cuot et. al, Mol. Gen. Genet. 198(2), 348 (1985)), pBluescript::AAC(6′)-Ie/APH(2″)-Ia (provided by Prof. Dr. Sergei Vakulenko, M.D., University of Notre Dame, Ind., USA; prepared according to S. B. Vakulenko et. al., J. Biol. Chem. 287 (52), 43262 (2012)), pBlue_lpp_aacC3_rrnC and pSET152 (Cat. No. PVT3395, Life Science Market; prepared according to Bierman et al., Gene 116 (1), 43 (1992)) plasmids, encoding APH(3′)-Ia (SEQ ID NO:2), APH(3′)-IIIa (SEQ ID NO:3), AAC(6′)Ie-APH(2″)-Ia (SEQ ID NO:4), AAC(3)-III (SEQ ID NO:1), and AAC(3)-IV (SEQ ID NO:5) respectively, were individually incubated in a vial of competent cells for 15 min on ice. The cells were subsequently heated to 42° C. for 90 s, and cooled on ice for 1 min. After addition of 900 μL LB, the cells were incubated for 1 h at 37° C. and 200 rpm. Cells were plated on LB-agar supplemented with 50 μg/mL KanaA and incubated for 18 h at 37° C. The next day, a single colony was inoculated in 5 mL LB supplemented with 50 μg/mL and grown for 18 h at 37° C. and 200 rpm. A 200 μL sample of each culture was diluted with 200 μL of 40% v/v glycerol in water, and stored at −80° C. The plasmid was purified from the remaining culture using the Plasmid Miniprep kit. Plasmid DNA was investigated by Eurofins Genomics (Germany) to confirm the identity of the aminoglycoside resistance genes.
as §1, §2, §3, §4, §5, §6
MIC determination. After 18 h of growth, 200 μL was transferred to a 96-well F-bottom plate. The optical density was determined by a plate reader at 600 nm, with 10 s shaking before reading. Triplicate measurements were averaged, and a growth curve was plotted in Microsoft Excel. […]

[1] = Escherichia coli, ATCC25922, 18 h
[2] = Escherichia coli, ATCC25922, ATCC25922 harboring plasmid encoding APH(3′)Ia
[3] = ATCC25922 harboring plasmid encoding APH(3′)Ia

Row | Structure (SMILES) | MIC50 (E. coli ATCC25922 strain; [1]) [µM] | MIC50 (E. coli (APH(3′)Ia); [2]) [µM] | MIC50 (E. coli ATCC25922 strain) [µM] | MIC50 (E. coli (APH(3′)Ia); [3]) [µM]
1 | CC(C)(C)CCNC(=N)NC1[C@@H](O)C(OC2[C@@H](F)[C@H](O[C@H]3OC(CN)[C@@H](O)CC3N)C(N)C[C@H]2NC(=O)[C@@H](O)CCN)O[C@H](CO)[C@H]1O (some centres unmarked) [ABX5025, Tobra-AHB-F-Gua 2-tBu-ethyl] | 0.25 to 0.5 (≈ 0.174 to 0.348 µg/mL) | 1 (≈ 0.697 µg/mL) |  | 
2 | N=C(NC[C@@H]1CNCCO1)NC1[C@@H](O)C(OC2[C@@H](F)[C@H](O[C@H]3OC(CN)[C@@H](O)CC3N)C(N)C[C@H]2NC(=O)[C@@H](O)CCN)O[C@H](CO)[C@H]1O (stereo partly drawn) [ABX5040, Tobra-AHB-F-Gua (S) morpholin-2-yl methyl] | 0.5 (≈ 0.356 µg/mL) | 1 (≈ 0.712 µg/mL) |  | 
3 | C[C@@H](N)CCNC(=N)NC1[C@@H](O)C(OC2[C@@H](F)[C@H](O[C@H]3OC(CN)[C@@H](O)CC3N)C(N)C[C@H]2NC(=O)[C@@H](O)CCN)O[C@H](CO)[C@H]1O (stereo partly drawn) [ABX5047, Tobra-AHB-F-Gua (R) 3-amino-butyl] | 0.25 (≈ 0.171 µg/mL) | 0.5 (≈ 0.342 µg/mL) |  | 
4 | N=C(NCCCO)NC1[C@@H](O)C(OC2[C@@H](F)[C@H](O[C@H]3OC(CN)[C@@H](O)CC3N)C(N)C[C@H]2NC(=O)[C@@H](O)CCN)O[C@H](CO)[C@H]1O (some centres unmarked) [ABX5041, Tobra-AHB-F-Gua 3-hydroxy-propyl] | 0.5 (≈ 0.335 µg/mL) | 1 (≈ 0.671 µg/mL) |  | 
5 | N=C(NCC1CCCO1)NC1[C@@H](O)C(OC2[C@@H](F)[C@H](O[C@H]3OC(CN)[C@@H](O)CC3N)C(N)C[C@H]2NC(=O)[C@@H](O)CCN)O[C@H](CO)[C@H]1O (some centres unmarked) [ABX5046, Tobra-AHB-F-Gua tetrahydrofuran-2-yl methyl] | 0.5 (≈ 0.348 µg/mL) | 1 (≈ 0.697 µg/mL) |  | 
6 | NCC[C@H](O)C(=O)N[C@@H]1C[C@H](N)[C@@H](O[C@H]2O[C@H](CN)[C@@H](O)[C@@H](O)[C@H]2O)[C@H](O)[C@H]1O[C@H]1O[C@H](CO)[C@@H](O)[C@H](N)[C@H]1O [ABX3002, 3′Epi-KanaA-AHB] |  |  | 16 to 32 | 32 (≈ 18.7 µg/mL)
7 | N=C(NCCN)NC1C(O)[C@@H](CO)OC(OC2C(F)[C@H](O[C@H]3OC(CN)[C@@H](O)CC3N)C(N)C[C@H]2NC(=O)[C@@H](O)CCN)[C@@H]1O (some centres unmarked) [ABX5020, Tobra-AHB-F-Gua-2-amino-ethyl] | 0.5 (≈ 0.328 µg/mL) | 1 to 2 (≈ 0.656 to 1.31 µg/mL) |  | 
8 | N=C(N)N[C@@H]1[C@@H](O)[C@@H](O[C@@H]2[C@@H](O)[C@H](O[C@H]3O[C@H](CN)[C@@H](O)[C@@H](O)[C@H]3N)[C@@H](N)C[C@H]2NC(=O)[C@@H](O)CCN)O[C@H](CO)[C@H]1O [ABX4005, 3′Epi-KanaB-AHB-Gua] |  |  | 4 (≈ 2.51 µg/mL) | 16 (≈ 10 µg/mL)
9 | NCC[C@H](O)C(=O)N[C@@H]1CC(N)[C@@H](O[C@H]2OC(CN)[C@@H](O)CC2N)[C@H](O)C1OC1O[C@H](CO)[C@@H](O)C(N)[C@H]1O (some centres unmarked) [ABX5004, Tobra-AHB] |  |  | 2 (≈ 1.14 µg/mL) | 4 to 8
10 | NCC[C@H](O)C(=O)N[C@@H]1CC(N)[C@@H](O[C@H]2OC(CN)[C@@H](O)CC2N)[C@H](F)C1OC1O[C@H](CO)[C@@H](O)C(N)[C@H]1O (some centres unmarked) [ABX5024, Tobra-AHB-F] |  |  | 1 (≈ 0.571 µg/mL) | 2 to 4
11 | N=C(NC[C@H]1CNCCO1)NC1[C@@H](O)C(OC2[C@@H](F)[C@H](O[C@H]3OC(CN)[C@@H](O)CC3N)C(N)C[C@H]2NC(=O)[C@@H](O)CCN)O[C@H](CO)[C@H]1O (stereo partly drawn) [ABX5043, Tobra-AHB-F-Gua (R) morpholin-2-yl methyl] | 0.25 (≈ 0.178 µg/mL) | 0.5 to 1 (≈ 0.356 to 0.712 µg/mL) |  | 
12 | NCCC(O)C(=O)NC1CC(N)C(OC2OC(CN)C(O)C(O)C2N)C(F)C1OC1OC(CO)C(O)C(N)C1O (centres unmarked) [ABX4007, KanaB-AHB-F] |  |  | 1 (≈ 0.587 µg/mL) | 4 (≈ 2.35 µg/mL)
13 | N=C(NCc1cnc[nH]1)NC1[C@@H](O)C(OC2[C@@H](F)[C@H](O[C@H]3OC(CN)[C@@H](O)CC3N)C(N)C[C@H]2NC(=O)[C@@H](O)CCN)O[C@H](CO)[C@H]1O (some centres unmarked) [ABX5050, Tobra-AHB-F-Gua imidazol-5-yl methyl] | 1 (≈ 0.693 µg/mL) | 2 (≈ 1.39 µg/mL) |  | 
14 | NCCC(O)C(=O)NC1CC(N)C(OC2OC(CN)C(O)C(O)C2O)C(F)C1OC1OC(CO)C(O)C(N)C1O (stereo not drawn) [ABX3005, 3′Epi-KanaA-AHB-F] |  |  | 4 (≈ 2.35 µg/mL) | 8 to 16
15 | N=C(N)NC1[C@@H](O)C(OC2[C@@H](F)[C@H](O[C@H]3OC(CN)[C@@H](O)[C@H](O)C3N)C(N)C[C@H]2NC(=O)[C@@H](O)CCN)O[C@H](CO)[C@H]1O (stereo partly drawn) [ABX4004, 3′epi-KanaB-AHB-F-Gua] |  |  | 1 to 2 | 4 (≈ 2.51 µg/mL)
16 | NCCC(O)C(=O)NC1CC(N)C(OC2OC(CN)C(O)C(O)C2N)C(O)C1OC1OC(CO)C(O)C(N)C1O (centres unmarked) [ABX4001, KanaB-AHB] |  |  | 2 (≈ 1.17 µg/mL) | 8 (≈ 4.68 µg/mL)
17 | N=C(N)NC1C(O)[C@@H](CO)OC(OC2C(F)[C@H](O[C@H]3OC(CN)[C@@H](O)CC3N)C(N)C[C@H]2NC(=O)[C@@H](O)CCN)[C@@H]1O (some centres unmarked) [ABX5006, Tobra-AHB-F-Gua] | < 0.25 | 0.5 (≈ 0.306 µg/mL) |  | 
18 | N=C(NCC1CCOC1)NC1[C@@H](O)C(OC2[C@@H](F)[C@H](O[C@H]3OC(CN)[C@@H](O)CC3N)C(N)C[C@H]2NC(=O)[C@@H](O)CCN)O[C@H](CO)[C@H]1O (some centres unmarked) [ABX5051, Tobra-AHB-F-Gua tetrahydrofuran-3-yl methyl] | 0.5 (≈ 0.348 µg/mL) | 1 (≈ 0.697 µg/mL) |  | 
19 | NCC[C@H](O)C(=O)N[C@@H]1CC(N)[C@@H](O[C@H]2OC(CN)[C@@H](O)[C@@H](O)C2N)[C@H](F)C1OC1O[C@H](CO)[C@@H](O)C(N)[C@H]1O (stereo partly drawn) [ABX4003, 3′Epi-KanaB-AHB-F] |  |  | 4 to 8 | 8 to 16
20 | N=C(NCC1CC1)NC1[C@@H](O)C(OC2[C@@H](F)[C@H](O[C@H]3OC(CN)[C@@H](O)CC3N)C(N)C[C@H]2NC(=O)[C@@H](O)CCN)O[C@H](CO)[C@H]1O (some centres unmarked) [ABX5027, Tobra-AHB-F-Gua cyclopropylmethyl] | 0.5 (≈ 0.333 µg/mL) | 1 (≈ 0.667 µg/mL) |  | 
21 | N=C(N)NC1[C@@H](O)C(OC2[C@@H](F)[C@H](O[C@H]3OC(CN)[C@@H](O)[C@H](O)C3N)C(N)C[C@H]2NC(=O)[C@@H](O)CCN)O[C@H](CO)[C@H]1O (some centres unmarked) [ABX4006, KanaB-AHB-F-Gua] |  |  |  | 1 to 2
